The nature of this series: Particle size analysis of micronized progesterone API (Beckman Device, ULM). The series is classed as physicochemical. The note with it: sample API, Fraunhofer optical model. The source says:
Particle size may be determined in any suitable manner. For example, a Beckman Coulter LS 13 320 Laser Diffraction Particle Size Analyzer (the “Beckman Device”) may be used to determine particle size. As described above, particle size may be represented by various metrics, for example, through an X50 particle size, and/or X90 particle size, or similar descriptions of particle size.
The Beckman Device may be used with various modules for introducing a sample for analysis. The Beckman Device may be used with the LS 13 320 Universal Liquid Module (“ULM”). The ULM is capable of suspending samples in the size range of 0.017 μm to 2000 μm. The ULM is a liquid based module that allows for delivery of the sample to the sensing zone. The ULM recirculates the sample through the Beckman Device. The ULM comprises two hoses, one for fluid delivery and another for waste. The total volume used may be 125 mL or less. A sample mass of from about 1 mg to about 10 g may be used. The ULM may interact with the Beckman Device via pins that fit into slots on the ULM. The ULM may use a variety of suspension fluids, for example, water, butonol, ethanol, chloroform, heptanes, toluene, propanol, COULTER Type 1B Dispersant (“Coulter 1B”), and a variety of other suspension fluids. Surfactants may also be used, though pump speed should be adjusted to prevent excessive bubbling. […]

`CC(=O)[C@H]1CC[C@H]2[C@@H]3CCC4=CC(=O)CC[C@]4(C)[C@H]3CC[C@]12C` [Progesterone, progesterone] had an X25 of 1.590 μm and an X75 of 7.442 μm.

The record behind these values is US20140370084A1, “ESTRADIOL FORMULATIONS AND THERAPIES” (TherapeuticsMD, Inc., priority 2013, published 2014).
